# Where a name gives a salt, the structure may show the parent alone. Read-outs that look alike come from different tables or passages of the source.
# Tests used:
# NMDA receptor = assay: [3H]CPP binding assay (displacement of tritiated CPP in rat frontal cortex homogenates); details: [3H]CPP 8 nM, 23° C., 15 min, pH 7.6
# Experimental: The compounds of the invention are tested for their NMDA competitive antagonist activity by their ability to displace tritiated 3-(2-carboxypiperazine-4-yl)propyl-1-phosphonic acid (CPP), a known competitive NMDA antagonist, in rat frontal cortex homogenates in the in vitro [^3 H]CPP binding assay.
# Rats are decapitated and their brains are immediately removed, weighed and placed in approximately 15 volumes of ice cold 10% sucrose. Each brain is homogenized using a Potter Elvehjem glass homogenizer (12 strokes at 840 rpm) equipped with a Teflon pestle. The homogenate is then centrifuged at 1,000×g. for 10 minutes. The resulting pellet is discarded and the supernatant is centrifuged at 20,000×g. for 20 minutes. The crude mitochondrial pellet is resuspended in ice cold distilled water and dispersed using a Brinkmann Polytron (PT-10 at setting of 6 for 30 seconds). The suspension is centrifuged at 8,000×g. for 20 minutes. The resulting supernatant and buffy coat is centrifuged at 48,000×g.for 20 minutes. The final crude synaptic membrane pellet is resuspended in ice cold distilled water and centrifuged at 48,000×g. for 20 minutes.
# To facilitate removal of endogenous glutamate, the membranes are resuspended in 15 volumes of ice cold 50 mMolar TRIS (pH 7.6) containing 0.04% Triton X-100. The suspension is incubated at 37° C. for 15 minutes, and then centrifuged at 20,000×g. for 20 minutes. The pellet is washed (i.e., resuspended in ice cold TRIS buffer and centrifuged at 20,000×g. for 20 minutes) twice. The membrane pellet is finally resuspended in 15 volumes ice cold 50 mMolar TRIS, distributed to several centrifuge tubes and centrifuged at 20,000×g. for 20 minutes and the pellets are frozen (-70° C.) for subsequent use in binding assays.
# For the binding assay, the membrane pellets are thawed and resuspended in 15 volumes ice cold 50 mMolar TRIS (pH 7.6) buffer. Triplicate samples (1000 μl) of the membrane suspension containing between 0.2 and 0.4 mg protein/ml are incubated at 23° C. for 15 minutes with 8 nM [^3 H]CPP (New England Nuclear), one of various test solutions, and buffer in a final incubation volume of 2 ml using plastic minivials (Skatron). The samples are then centrifuged at 48,000×g. for 20 minutes and the supernatants discarded. The pellets are digested with tissue solubilizer (NCS, Amersham; 500 μl/sample) for 1 hour. Hydrochloric acid (100 μl of 4N) is added to each sample to reduce chemiluminescence during subsequent counting. Scintillation cocktail (Aqasol, DuPont; 3.2 ml) is added to each of the minivials which are then capped and shaken for 15 minutes prior to counting. The vials are placed into a Packard 460 CD (or equivalent) counter for determination of radioactivity.
# Total specific binding is defined as total binding less the binding in the presence of 1 mMolar NMDA. Specific binding in the presence of a test drug is expressed as a percent of total specific binding when no drug is present. When test compounds are examined for a dose-response relationship, the results are then plotted as the logit of % binding vs. the log of the test drug concentration. Linear regression analysis then yields a straight line from which an IC50 with 95% confidence limits can be calculated.
# NMDA-induced convulsions = assay: murine NMDA-induced convulsion assay (survival); assay type: in vivo, mice (male Swiss-albino, CD-1 strain); details: for ED50: Mus musculus, ip, 0.5 h
# Experimental: The compounds of the invention are further tested for their in vivo ability to antagonize NMDA in the murine NMDA-induced convulsion assay.
# Male Swiss-albino mice (CD-1 strain, Charles River) 18-22 grams in weight, after 18 hours of food deprivation, are habituated to an observation chamber for 30 minutes. The mice are pretreated with the representative test compound followed thirty minutes later with NMDA, 195 mg/kg, i.p., which is a dose normally causing 90% mortality resulting from motor seizures including uncontrollable hind leg scratching or limbs and/or torso muscle jerking with loss of righting reflex followed by death within the 30 minute observation period after NMDA administration. From the latter, the ED50 for survival is determined.
# Data analyzed using the probit analysis program PS-NONLIN (Natural Response Rate Version). The output of this program contains the statistical significance of the slope of the dose-response and the ED 50% and 95% confidence limits for survival.
# [1] = standard compounds, read-out: IC50 ± S.E.M.
# [2] = reference compounds, i.p., 30 min before NMDA 195 mg/kg i.p., 95% confidence interval, read-out: ED50 % for survival
# [3] = compounds of the invention, read-out: IC50
# [4] = compounds of the invention, i.p., 30 min before NMDA 195 mg/kg i.p., read-out: ED50 (survival)
compound,measurement,setting,value
"NC(CCCCCP(=O)(O)O)C(=O)O (centres unmarked) [AP7, reference compound]",IC50,NMDA receptor; [1],639 ± 129 nM
"O=C(O)C1CN(CCCP(=O)(O)O)CCN1 (centres unmarked) [CPP, 3-(2-carboxypiperazine-4-yl)propyl-1-phosphonic acid, reference compound]",ED50,NMDA-induced convulsions; [2],1.04 mg/kg
"CN1C(=O)CN=C(c2ccccc2)c2cc(Cl)ccc21 [Diazepam, reference compound]",ED50,NMDA-induced convulsions; [2],1.91 mg/kg
"Cl.Cl.N[C@H](Cc1nc2ccccc2n1CP(=O)(O)O)C(=O)O.O.O [Example 1, R-α-Amino-1-(phosphonomethyl)-1H-benzimidazole-2-propanoic acid, dihydrochloride, dihydrate]",IC50,NMDA receptor; [3],59 nM
same,ED50,NMDA-induced convulsions; read-out: ED50 (survival),2 mg/kg
"Cl.Cl.N[C@H](Cc1nc2cc(Cl)c(Cl)cc2n1CP(=O)(O)O)C(=O)O [Example 2, R-α-Amino-5,6-dichloro-1-(phosphonomethyl)-1H-benzimidazole-2-propanoic acid, dihydrochloride]",IC50,NMDA receptor; [3],18.2 nM
same,ED50,NMDA-induced convulsions; read-out: ED50 (survival),2.7 mg/kg
"Cc1cc2nc(C[C@@H](N)C(=O)O)n(CP(=O)(O)O)c2cc1C.Cl.Cl [Example 3, R-α-Amino-5,6-dimethyl-1-(phosphonomethyl)-1H-benzimidazole-2-propanoic acid, dihydrochloride]",IC50,NMDA receptor; [3],123 nM
same,% survival,"NMDA-induced convulsions; 3 mg/kg, 30 min before NMDA 195 mg/kg i.p.",10%
"N[C@H](Cc1nc2ccc(Cl)cc2n1CP(=O)(O)O)C(=O)O [Example 7, R-α-Amino-6-chloro-1-(phosphonomethyl)-1H-benzimidazole-2-propanoic acid, 0.8 hydrochloride, hydrate]",IC50,NMDA receptor; [3],21.7 nM
same,ED50,NMDA-induced convulsions; [4],< 5 mg/kg
"Cl.N[C@H](Cc1nc2cc(Cl)ccc2n1CP(=O)(O)O)C(=O)O [Example 8, R-α-Amino-5-chloro-1-(phosphonomethyl)-1H-benzimidazole-2-propanoic acid hydrochloride]",IC50,NMDA receptor; [3],7 nM
same,ED50,NMDA-induced convulsions; read-out: ED50 (survival),0.13 mg/kg
"N[C@@H](Cc1nc2cc(Cl)c(Cl)cc2n1CP(=O)(O)O)C(=O)O [Example 9, S-α-Amino-5,6-dichloro-1-(phosphonomethyl)-1H-benzimidazole-2-propanoic acid, dihydrate]",IC50,NMDA receptor; [3],1010 nM
same,ED50,NMDA-induced convulsions; [4],> 10 mg/kg
"N[C@@H](CCC(=O)O)C(=O)O [L. Glutamic Acid, reference compound]",IC50,NMDA receptor; [1],64.3 ± 4.7 nM
"C[C@]12N[C@H](Cc3ccccc31)c1ccccc12 [MK-801, reference compound]",ED50,NMDA-induced convulsions; [2],0.19 mg/kg

# From US5124319A, “Benzimidazole phosphono-amino acids” (American Home Products Corporation, priority 1991, dated 1992)
